Data: PubChem BioAssay (NCI)
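Growth conditions: 96-well plates. Treatment: test compound, 48 hours, 5 concentrations. Analysis: linear interpolation between bracketing concentrations; unreached endpoints set to highest concentration. TGI marks complete inhibition of growth.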

What was measured:
Test in all cases: NCI-60 cell line screen, 48 h
RPMI-8226 leukemia = system: RPMI-8226 leukemia
SF-268 CNS = system: SF-268 CNS
NCI/ADR-RES ovarian = system: NCI/ADR-RES ovarian
A549 NSCLC = system: A549 NSCLC
MCF7 breast = system: MCF7 breast
CAKI-1 renal = system: CAKI-1 renal
T-47D breast = system: T-47D breast
HOP-92 NSCLC = system: HOP-92 NSCLC
SR leukemia = system: SR leukemia
OVCAR-3 ovarian = system: OVCAR-3 ovarian
LOX IMVI melanoma = system: LOX IMVI melanoma
SK-MEL-5 melanoma = system: SK-MEL-5 melanoma
HS 578T breast = system: HS 578T breast
KM12 colon = system: KM12 colon
SK-MEL-28 melanoma = system: SK-MEL-28 melanoma
M14 melanoma = system: M14 melanoma
HCT-116 colon = system: HCT-116 colon
TK-10 renal = system: TK-10 renal
NCI-H226 lung = system: NCI-H226 lung
UACC-62 melanoma = system: UACC-62 melanoma

Structure (SMILES)	TGI (RPMI-8226 leukemia)	TGI (SF-268 CNS)	TGI (NCI/ADR-RES ovarian)	TGI (A549 NSCLC)	TGI (MCF7 breast)	TGI (CAKI-1 renal)	TGI (T-47D breast)	TGI (HOP-92 NSCLC)	TGI (SR leukemia)	TGI (OVCAR-3 ovarian)	TGI (LOX IMVI melanoma)	TGI (SK-MEL-5 melanoma)	TGI (HS 578T breast)	TGI (KM12 colon)	TGI (SK-MEL-28 melanoma)	TGI (M14 melanoma)	TGI (HCT-116 colon)	TGI (TK-10 renal)	TGI (NCI-H226 lung)	TGI (UACC-62 melanoma)
O=C1C=C2C(=NC34CCCCC3C(c3ccccc3)C3=C(c5ccccc5CC3)N24)c2ccccc21 (stereo unspecified)	> 10 µM	> 10 µM	> 10 µM	> 10 µM	> 10 µM	> 10 µM	> 10 µM	> 10 µM	> 10 µM	> 10 µM	> 10 µM	> 10 µM	> 10 µM	> 10 µM	> 10 µM	> 10 µM	> 10 µM	> 10 µM	> 10 µM	> 10 µM
Cc1nc(N)nc(N)c1-c1ccc(Cl)c(Cl)c1	> 100 µM	> 100 µM	> 100 µM	> 100 µM	> 100 µM	> 100 µM	> 100 µM	79.7 µM	> 100 µM	> 49 µM	> 100 µM	> 44.7 µM	58 µM	> 100 µM	47.1 µM	> 100 µM	> 100 µM	> 51.9 µM	> 100 µM	> 51.1 µM
Cc1ccc(C2=Nc3cccc4cccc(c34)N2)cc1	> 100 µM	> 100 µM	> 100 µM	> 100 µM	> 100 µM	> 100 µM	> 100 µM	> 100 µM	> 100 µM	> 100 µM	> 100 µM	> 100 µM	> 100 µM	> 100 µM	> 100 µM	> 100 µM	> 100 µM	> 100 µM	> 100 µM	> 100 µM
NC(=O)c1cc2cc(Cl)cc(Cl)c2oc1=Nc1ccc(F)cc1	61.7 µM	> 100 µM	34.5 µM	70.1 µM	45.1 µM	38 µM	73.5 µM	80.4 µM	24.8 µM	52.9 µM	> 100 µM	31.7 µM	> 100 µM	> 100 µM	46.3 µM	45.5 µM	38.3 µM	30 µM	43.5 µM	63.7 µM
CN(CC1(CO)CCC1)c1cc(Cl)nc(N)n1	> 100 µM	> 100 µM	> 100 µM	> 100 µM	> 100 µM	> 100 µM	> 100 µM	> 100 µM	> 100 µM	> 100 µM	> 100 µM	> 100 µM	> 100 µM	> 100 µM	> 100 µM	> 100 µM	> 100 µM	> 100 µM	> 100 µM	> 100 µM
O=C(/C=C/c1csc(-c2ccccc2)n1)NCc1ccc(C(=O)NCCc2ccccc2)cc1	> 100 µM	> 100 µM	> 100 µM	> 100 µM	> 100 µM	50.3 µM	> 100 µM	36.8 µM	> 100 µM	> 100 µM	> 100 µM	> 100 µM	> 100 µM	> 100 µM	> 100 µM	> 100 µM	> 100 µM	38.2 µM	90.2 µM	> 100 µM
CCOC(=O)N/N=C(/OCC)c1ccccc1	> 100 µM	> 100 µM	> 100 µM	> 100 µM	> 100 µM	> 100 µM	> 100 µM	> 100 µM	> 100 µM	> 100 µM	> 100 µM	> 100 µM	> 100 µM	> 100 µM	> 100 µM		> 100 µM	> 100 µM	> 100 µM	> 100 µM
CC(=O)CCCCC(=O)Nc1ccc(CC(NC(=O)OC(C)(C)C)C(=O)NCC(=O)OCc2ccccc2)cc1 (stereo unspecified)	39.5 µM	48.3 µM	> 100 µM	> 100 µM	49.5 µM	29.1 µM	42.6 µM	68 µM	56.9 µM	27.9 µM	29.3 µM	27.8 µM	48.4 µM	52.1 µM	35.4 µM	55.2 µM	37.8 µM	> 100 µM	94 µM	
CC(=O)N1C(Nc2ccccn2)CCN1c1ccccc1 (stereo unspecified)	> 10 µM	> 10 µM	> 10 µM	> 10 µM	> 10 µM	> 10 µM	> 10 µM	> 10 µM	> 10 µM	> 10 µM	> 10 µM	> 10 µM	> 10 µM		> 10 µM	> 10 µM	> 10 µM	> 10 µM	> 10 µM	
CCOC(=O)C1=[N+]([O-])OC2=C(O)CCCC21 (stereo unspecified)	> 100 µM	> 100 µM	> 100 µM	> 100 µM	> 100 µM	> 100 µM	> 100 µM	> 100 µM	> 100 µM	> 100 µM	> 100 µM	> 100 µM	> 100 µM	> 100 µM	> 100 µM	> 100 µM	> 100 µM	> 100 µM	> 100 µM	> 100 µM
O=C1c2ccccc2S(=O)(=O)c2c1cccc2[N+](=O)[O-]	5.94 µM	> 9.38 µM	6.55 µM	> 10 µM	3.31 µM	9.83 µM	5.9 µM	9 µM	5.28 µM	2.51 µM	5.21 µM	2.46 µM	> 10 µM	5.08 µM	5.25 µM	3.4 µM	2.63 µM	> 10 µM	> 10 µM	3.48 µM
CCC1NC(=O)C1NC(=O)OC (stereo unspecified)	> 100 µM		> 100 µM		> 100 µM	> 100 µM	> 100 µM	> 100 µM	> 100 µM	> 100 µM	> 100 µM	> 100 µM	> 100 µM	> 100 µM	> 100 µM	> 100 µM	> 100 µM	> 100 µM	> 100 µM	> 100 µM
COC12OC3(C4OC41)C(C(=O)O[C@H]3CO[Si](C)(C)C(C)(C)C)C2C(=O)Oc1ccccc1 (stereo partly specified)	> 100 µM	> 100 µM	> 100 µM	> 100 µM	> 100 µM	> 100 µM	> 100 µM	> 100 µM	> 100 µM	> 100 µM	> 100 µM	> 100 µM	> 100 µM	> 100 µM	> 100 µM	> 100 µM	> 100 µM	> 100 µM	> 100 µM	> 100 µM
CC#CC#C/C=C1/O[C@]2(CCC(OC(C)=O)CO2)[C@@H]2O[C@H]12 (stereo partly specified)	75.2 µM	> 100 µM	58.1 µM	> 100 µM	> 100 µM	63.6 µM	52.1 µM	92.9 µM	> 100 µM	> 100 µM	48.2 µM		> 100 µM	47.1 µM		67.6 µM	40.6 µM	> 100 µM	47.4 µM	36.8 µM
O=C(C1OC1c1ccc(O)cc1)C12CC3CC(CC(C3)C1)C2 (stereo unspecified)	> 73 µM	> 100 µM	> 100 µM	> 100 µM	> 100 µM	> 66.1 µM	51.6 µM	57.4 µM	> 100 µM	> 64.8 µM	> 56.1 µM	> 100 µM	> 100 µM	> 100 µM	> 100 µM	> 100 µM	> 69.8 µM	> 100 µM	> 100 µM	> 100 µM
O=C(/C=C/c1ccccc1)/C=N/N1C(=S)N(c2ccccc2)C(=Nc2ccccc2)C1=Nc1ccccc1	> 100 µM	> 100 µM	> 100 µM	> 100 µM	> 100 µM	> 100 µM	> 100 µM	> 100 µM	> 100 µM	> 100 µM		> 100 µM	> 100 µM	> 100 µM	> 100 µM	> 100 µM	> 100 µM	> 100 µM	> 100 µM	> 100 µM
Nc1ncnc2ccc(Sc3ccc4ncnc(N)c4c3)cc12	> 100 µM	> 100 µM	> 100 µM	> 100 µM	> 100 µM	> 100 µM	> 100 µM	> 100 µM	> 100 µM	> 100 µM	> 100 µM	> 100 µM	> 100 µM	> 100 µM	> 100 µM	> 100 µM	> 100 µM	> 100 µM	> 100 µM	> 100 µM
CSc1ncc2c(C#N)c3sc4ccccc4n3c(=O)c2n1	> 100 µM	52.9 µM	> 100 µM	> 100 µM	> 100 µM	> 100 µM	> 100 µM	> 100 µM	> 100 µM	> 100 µM	> 100 µM	> 100 µM	51.3 µM	> 100 µM	> 100 µM	> 100 µM	> 100 µM	> 100 µM	> 100 µM	> 100 µM
COC(=O)c1ccccc1CC1Cc2ccc3c(c2C1=O)CCC3 (stereo unspecified)	> 100 µM	> 100 µM	> 100 µM	> 100 µM	90.3 µM	> 100 µM	> 100 µM	94.9 µM	> 100 µM	> 100 µM	> 100 µM	62.3 µM	> 100 µM	> 100 µM	> 100 µM	> 100 µM	> 100 µM	> 100 µM	> 100 µM	> 100 µM
CCOC(=O)C1(C(=O)OCC)Nc2cccnc2N(C)N1	40.8 µM	> 100 µM	43.8 µM	> 100 µM	34.8 µM	36.1 µM	53.5 µM	29.7 µM	> 100 µM	41.5 µM	52.6 µM	34.2 µM	> 100 µM	> 100 µM	93.8 µM	39.1 µM	73.9 µM	40.1 µM	35.3 µM	35.2 µM
C[n+]1c2ccccc2c(C(=O)Nc2ccc(S(=O)(=O)Nc3ccnn3-c3ccccc3)cc2)c2ccccc21	> 100 µM	> 100 µM	> 100 µM	> 100 µM	> 100 µM	> 100 µM	> 100 µM		> 100 µM	> 100 µM	> 100 µM	> 100 µM	> 100 µM	> 100 µM	> 100 µM	> 100 µM	> 100 µM	> 100 µM	> 100 µM	> 100 µM
CC1CNc2ccccc2N=C1NN (stereo unspecified)	> 100 µM	> 100 µM	> 100 µM	> 100 µM	> 100 µM	> 100 µM	> 100 µM		> 100 µM	> 100 µM	> 100 µM	> 100 µM	> 100 µM	> 100 µM	> 100 µM	> 100 µM	> 100 µM	> 100 µM	> 100 µM	> 100 µM
CCSCCC(N)C(=O)O (stereo unspecified)	> 100 µM	> 100 µM	> 100 µM	> 100 µM	> 100 µM		> 100 µM	> 100 µM	> 100 µM	> 100 µM	> 100 µM	> 100 µM	> 100 µM	> 100 µM	> 100 µM	> 100 µM	> 100 µM	> 100 µM	> 100 µM	> 100 µM
CCOC(=O)c1ccc(N=C2C(=S)N(c3ccc(C(=O)OCC)cc3)C(=N)N2/N=C/c2ccccc2)cc1	> 100 µM	52 µM	> 100 µM	> 100 µM	28.5 µM	42.2 µM	63.1 µM	36.2 µM	> 100 µM	28.8 µM		35.6 µM	> 100 µM	31.2 µM		24.9 µM	30.5 µM	62.2 µM	31.4 µM	38.3 µM
